Source: patent US20250145693A1, “HERV-K ANTIBODY, CELL, VACCINE, AND DRUG THERAPEUTICS” (priority 2021, published 2025)

Experiments:
[1] = test system: HCT15, SW48 and HCT116 cells; experiment: HERV-K expression in CRC cell lines; type: cell-based
From the text: The expression of HERV-K was detected in several CRC cell lines and tissues, but not in benign colon tissues. […] The forced overexpression of HERV-K with these agents that induce expression of HERV-K by innate immune response (Poly I:C treatment) or LTR hypomethylation (5-Aza) would provoke the cancer cells to increase production of a target that would make them more susceptible to targeted therapy to include targeted immunotherapy.

[2] = test system: breast cancer cell lines; experiment: expression of HERV-K and signaling proteins after H2O2 or paclitaxel; type: cell-based, human; details: for expression of signaling proteins by immunoblot: paclitaxel (Tax, 0.1 μM) or H2O2 (5 μM or 10 μM), vs parent cells
[3] = test system: MCF-7 and Hs578T breast cancer cell lines; experiment: cell cycle distribution by FACS; type: cell-based, human; details: Hs578T cells, especially in the shRNAenv cells
[4] = test system: MCF-7, HS578T, MDA-MB-231 cells; experiment: transwell migration and invasion; type: cell-based, human; design: dose or concentration left out as unconfirmed
Description: The effects of KD of HERV-K env on migration and invasion were investigated using transwell plates. After transwell plates (8 μm) were rehydrated for 2 hours, 2.5×10^4 cells were seeded into the transwell and cultured. The transwell was then removed and the cells that had migrated into the lower chamber were counted. For the invasion assay, transwells were coated with Matrigel, and cells remaining in the upper chamber were removed with a cotton swab. The invaded cells on the reverse side of the Matrigel were counted under a light microscope (40× magnification) after the cells were fixed with methanol and stained with Giemsa. Ten random fields were counted. The average number of invaded cells per field was presented as mean±SD (n=10 fields). Triplicate assays were performed for each experiment.

[5] = test system: MDA-MB-231, Hs578T, and MCF-7 breast cancer cells; experiment: proliferation and drug sensitivity of breast cancer cells after HERV-K KD; type: cell-based, human; details: for sensitivity of breast cancer cells toward drug: MCF-7 and Hs578T stably transduced with shRNAenv vs shRNAc or parent cells
From the text: Here, the inventors further determined the effects of HERV-K env gene KD in breast cancer cells treated with breast cancer chemotherapy drugs.

[6] = test system: breast cancer cell lines
[7] = test system: HERV-K env protein; experiment: antibody internalization; type: cell-based; details: 37° C., 0, 5, 30, and 45 minutes; permeabilized cells
Description: To determine antibody internalization of humanized and murine antibodies, cells were incubated with HUM1 or m6H5 at 37° C. for different time intervals (0, 5, 30, and 45 minutes). At each time point, cells were fixed. Half of the cells were permeabilized and half were not permeabilized. Anti-human IgG 488 or anti-mouse IgG 488 was used to detect the percentages of antibody-bound HERV-K env protein that remained on the cell surface in the cells that were not permeabilized. A reduced surface expression of HERV-K positive cells was observed. The internalization of rate was determined in the cells that were permeabilized. The equation for the percentage of internalization at each point was 100−(% label at time 0).

[8] = test system: ERVK6 and HERV-K envelope surface fusion protein; experiment: immunoblot on HERV-K Env surface proteins; type: binding, human
[9] = test system: MDA-MB-231 cells; experiment: Live/dead cell viability assay; type: cell-based, human; details: 10 μg/ml, sixteen hours
Description: Live/dead cell viability assays were used to assess induction of cell death after anti-HERV-K antibody treatment. MDA-MB-231 cells were seeded overnight in 24-well plates. Cells were treated with various antibodies (10 μg/ml) and incubated for sixteen hours at 37C in a cell culture incubator. Calcein Am (4 μl/10 ml media) and Eth-D1 (20 μl/10 ml media), 200 μl per well, were then added and cells were incubated for thirty minutes at room temperature. EthD-1 penetrates cells with membrane damage and binds to nucleic acids to produce red fluorescence in dead cells. Live cells (green color; Calcein Am) and putative dead cells (red color; EthD-1) were identified using the co-stained Live/Dead Viability Assay. Human IgG or mouse IgG were used control.

[10] = test system: HERV-K envelope surface fusion protein; experiment: ELISA binding to HERV-K envelope surface fusion protein; design: species or system human
From the text: An ELISA assay was used to compare antigen binding sensitivity and specificity of hu6H5 vs. m6H5.

[11] = test system: 4T1pLVXKenv tumors; experiment: 4T1pLVXKenv combination treatment, Treg cells; type: in vivo, mouse; details: pLVXKenv vs pLVX; 6H5 once, IL2 for five days
Description: BALB/c mice were inoculated with 3×10^5 4T1pLVXKenv or 4T1pLVX cells on day 0. These mice were then treated: FIG. 23B with CpG (1.24 nmol), HERV-K SU protein (10 μg, 20 μg, and 20 μg), or CpG+ HERV-K SU protein on days 6, 13, and 19. Tumor weights were compared at week 4 post tumor cell inoculation; (FIG. 23C) with Aza (0.5 mg/kg) daily for five days in two weekly cycles, anti-PD-1 (200 μg per mouse every four days; four treatments), or Aza+anti-PD-1. Mice treated with PBS were used as controls, and tumor weights were compared among groups; and (FIG. 23D) with anti-HERV-K antibody (6H5; once) and with IL2 (for five days).

## Nc1ncn([C@@H]2O[C@H](CO)[C@@H](O)[C@H]2O)c(=O)n1 [5-Azacytidine]
[1]
  expression of HERV-K: Increased expression of HERV-K

## Poly I:C
[1]
  expression of HERV-K: Increased expression of HERV-K

## CC(=O)O[C@H]1C(=O)[C@@]2(C)[C@H]([C@H](OC(=O)c3ccccc3)[C@]3(O)C[C@H](OC(=O)[C@H](O)[C@@H](NC(=O)c4ccccc4)c4ccccc4)C(C)=C1C3(C)C)[C@]1(OC(C)=O)CO[C@@H]1C[C@@H]2O [paclitaxel]
[2]
  expression of signaling proteins by immunoblot: increased expression of the breast cancer relevant signaling proteins HIF-1α, HERV-K, p-RSK, p-ERK, ERK, and Ras
[3]
  cell cycle arrest: G2 arrest
[4]
  migration and invasion: Significantly reduced migration and invasion
[5]
  sensitivity of breast cancer cells toward drug: Enhanced sensitivity
[5]; cells with HERV-K env KD by shRNAenv vs parent cells or shRNAc
  cell proliferation: Significantly reduced cell proliferation

## COc1cccc2c1C(=O)c1c(O)c3c(c(O)c1C2=O)C[C@@](O)(C(=O)CO)C[C@@H]3O[C@H]1C[C@H](N)[C@H](O)[C@H](C)O1 [doxorubicin]
[5]
  sensitivity of breast cancer cells toward drug: Enhanced sensitivity

## OO [H2O2, Hydrogen Peroxide]
[2]; 5 μM, HERV-K KD cells
  effect on shRNAenv-induced block in expression: reversed the shRNAenv-induced block in expression of HERV-K, HIF-1α, P-RSK, and P-ERK in a time-dependent manner
[2]; 25 μM and 50 μM
  expression at elevated concentrations: decreased expression of HERV-K and corresponding decreased HIF-1a and Ras/ERK signaling
[2]; 1-50 μM, three breast cancer cell lines
  protein expression at graded concentrations: enhanced expression of HERV-K, Ras, p-ERK, and HIF-1a proteins at H2O2 concentrations of 5 μM and 10 μM
[2]; 5 M, 0 hours to 48 hours, three breast cancer cell lines
  expression of HERV-K mRNA: elevated expression of HERV-K mRNA
[2]; 18 hours
  expression of HERV-K, p-MEK, and p-ERK by immunoblot: enhanced expression of HERV-K, p-MEK, and p-ERK
[2]; MDA-MB-231 cells
  expression of EMT markers: Increased expression of EMT markers including N-cadherin, vimentin, and Slug, and decreased expression of E-Cadherin
[2]
  expression of signaling proteins by immunoblot: increased expression of the breast cancer relevant signaling proteins HIF-1α, HERV-K, p-RSK, p-ERK, ERK, and Ras
[6]; 5 μM, after 96 hours
  cell proliferation: Significantly increased cell proliferation
[6]; after 48 hours for MDA-MB-231 and after 72 hours for MCF-7
  migration: increased migration

B1: m6H5: murine anti-HERV-K monoclonal antibody (antibody, V domains shown)
VH: QVKLQQSGPDLVKPGASVKISCKASGYSFTGYYMHWVKQSHGKSLEWIGRVNPNSGGTSYNQKFKDKAILTVDKSSSTAYMELRSLTSEDSAVYYCARSKGNYFYAMDYWGQGTTVTVSS
VL: DIELTQSPASLAVSLGQRATISCRASESVDSHGTSFMHWYQQKPGQPPKFLIYRASNLESGIPARFSGSGSRTDFTLTINPVETDDVAIYYCQQSNEDPPTFGGGTKLEIK
[7]
  internalized HERV-K positive cells: increased expression of internalized HERV-K positive cells
[8]
  binding by immunoblot to two HERV-K Env surface proteins: shown by immunoblot to bind
[9]
  dead cells (red fluorescence, EthD-1): red fluorescent cells were observed
[10]
  binding detected by the inventors using ELISA or Western blot assays: readily detected
[11]
  T regulatory (Treg) cells: Significantly decreased T regulatory (Treg) cells
